Data published in patent publication US20020052295A1, “Diacyl derivatives of propylene diamine having herbicidal activity” (priority 1999, published 2002).

How the values were obtained:
[1] = test system: ABUTH; test: Pre-emergence herbicidal activity on ABUTH (velvetleaf); type: in vivo, Abutilon theophrasti; conditions: lowest tested rate giving 80% or greater inhibition, approx. 14 days after planting and treating, greenhouse
How it was run: (§1)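 GR80 derived from percent inhibition rated ~14 days after sowing. Compound sprayed pre-emergence onto soil in 50:50 acetone/water; rates typically up to 1000 g/ha.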

[2] = test system: SOLNI; test: Pre-emergence herbicidal activity on SOLNI (black nightshade); type: in vivo, Solanum nigrum; conditions: lowest tested rate giving 80% or greater inhibition, approx. 14 days after planting and treating, greenhouse
How it was run: as §1

[3] = test system: AMARE; test: Pre-emergence herbicidal activity on AMARE (redroot pigweed); type: in vivo, Amaranthus retroflexus; conditions: lowest tested rate giving 80% or greater inhibition, approx. 14 days after planting and treating, greenhouse
How it was run: as §1

[4] = test system: DATST; test: Pre-emergence herbicidal activity on DATST (jimsonweed); type: in vivo, Datura stramonium; conditions: lowest tested rate giving 80% or greater inhibition, approx. 14 days after planting and treating, greenhouse
How it was run: as §1

[5] = test system: CHEAL; test: Pre-emergence herbicidal activity on CHEAL (common lambsquarters); type: in vivo, Chenopodium album; conditions: lowest tested rate giving 80% or greater inhibition, approx. 14 days after planting and treating, greenhouse
How it was run: as §1

[6] = test system: CONAR; test: Pre-emergence herbicidal activity on CONAR (field bindweed); type: in vivo, Convolvulus arvensis; conditions: lowest tested rate giving 80% or greater inhibition, approx. 14 days after planting and treating, greenhouse
How it was run: as §1

[7] = test system: POROL; test: Pre-emergence herbicidal activity on POROL (common purslane); type: in vivo, Portulaca oleracea; conditions: lowest tested rate giving 80% or greater inhibition, approx. 14 days after planting and treating, greenhouse
How it was run: as §1

[8] = test system: CIRAR; test: Pre-emergence herbicidal activity on CIRAR (canada thistle, seedling); type: in vivo, Cirsium arvense; conditions: lowest tested rate giving 80% or greater inhibition, approx. 14 days after planting and treating, greenhouse
How it was run: as §1

[9] = test system: ECHCG; test: Pre-emergence herbicidal activity on ECHCG (barnyardgrass); type: in vivo, Echinochloa crus-galli; conditions: lowest tested rate giving 80% or greater inhibition, approx. 14 days after planting and treating, greenhouse
How it was run: as §1

[10] = test system: SORHA; test: Pre-emergence herbicidal activity on SORHA (johnsongrass, seedling); type: in vivo, Sorghum halepense; conditions: lowest tested rate giving 80% or greater inhibition, approx. 14 days after planting and treating, greenhouse
How it was run: as §1

[11] = test system: SETFA; test: Pre-emergence herbicidal activity on SETFA (giant foxtail); type: in vivo, Setaria faberi; conditions: lowest tested rate giving 80% or greater inhibition, approx. 14 days after planting and treating, greenhouse
How it was run: as §1

[12] = test system: PANDI; test: Pre-emergence herbicidal activity on PANDI (fall panicum); type: in vivo, Panicum dichotomiflorum; conditions: lowest tested rate giving 80% or greater inhibition, approx. 14 days after planting and treating, greenhouse
How it was run: as §1

[13] = test system: BRAPP; test: Pre-emergence herbicidal activity on BRAPP (broadleaf signalgrass); type: in vivo, Brachiaria platyphylla; conditions: lowest tested rate giving 80% or greater inhibition, approx. 14 days after planting and treating, greenhouse
How it was run: as §1

[14] = test system: DIGSA; test: Pre-emergence herbicidal activity on DIGSA (large crabgrass); type: in vivo, Digitaria sanguinalis; conditions: lowest tested rate giving 80% or greater inhibition, approx. 14 days after planting and treating, greenhouse
How it was run: as §1

[15] = test system: ABUTH; test: Post-emergence herbicidal activity on ABUTH (velvetleaf); type: in vivo, Abutilon theophrasti; conditions: post-emergence spray; lowest tested rate with 80% or greater inhibition; about 14 days after treatment
From the text: (§2) All such uses, and the biological activity enabling such uses, are embraced by the term “herbicidal” herein. Tables 15 and 16 summarize results of tests conducted as described below to determine the pre-emergence herbicidal activity, in the form of a GR80 value, of illustrative compounds of this invention. […] Where herbicidal activity was evident but 80% inhibition was not achieved at the highest rate tested (typically 1000 g/ha), an asterisk (*) is shown in the following tables. Herbicidal activity evident in the form of symptoms of phytotoxicity, in the absence of at least 80% inhibition at any rate, is indicated in the tables by “phyto”. A blank cell in the following tables indicates no herbicidal or phytotoxic response at any rate tested.
(§3) In another set of tests, the post-emergence activity of compounds of this invention was evaluated on the cool season species listed above. The following procedure was used.
(§4) A pre-prepared topsoil mixture (described above) was placed in a pot and compacted to a depth of 1.0 to 1.25 cm from the top of the pot. Seeds of each of several monocotyledonous and dicotyledonous annual plant species were placed on top of the soil The seeds were covered with a mixture of 50% topsoil and 50% Rediearth™ in sufficient quantity to level-fill the pots. The pots were then placed on a greenhouse bench and subirrigated as needed until plants growing from the seeds had emerged and reached a suitable growth stage for post-emergence treatment, typically 9 to 14 days after planting.
(§5) A known amount of each test compound dissolved or suspended in an appropriate organic solvent was diluted with a 50:50 mix of acetone and water and applied to the plants by spraying with a standard spray nozzle in a spray volume of 3,100 l/ha at a spray pressure of […] (30 psig). Control plants were not sprayed.
(§6) After treatment the plants were placed in a greenhouse with a 30/21° C. day/night temperature regime and were subsequently watered as needed for growth. Approximately 14 days after treatment, the plants were observed and herbicidal efficacy recorded as percent inhibition by comparison with control plants.

[16] = test system: SOLNI; test: Post-emergence herbicidal activity on SOLNI (black nightshade); type: in vivo, Solanum nigrum; conditions: post-emergence spray; lowest tested rate with 80% or greater inhibition; about 14 days after treatment
From the text: as §2, §3, §4, §5, §6

[17] = test system: AMARE; test: Post-emergence herbicidal activity on AMARE (redroot pigweed); type: in vivo, Amaranthus retroflexus; conditions: post-emergence spray; lowest tested rate with 80% or greater inhibition; about 14 days after treatment
From the text: as §2, §3, §4, §5, §6

[18] = test system: DATST; test: Post-emergence herbicidal activity on DATST (jimsonweed); type: in vivo, Datura stramonium; conditions: post-emergence spray; lowest tested rate with 80% or greater inhibition; about 14 days after treatment
From the text: as §2, §3, §4, §5, §6

[19] = test system: CHEAL; test: Post-emergence herbicidal activity on CHEAL (common lambsquarters); type: in vivo, Chenopodium album; conditions: post-emergence spray; lowest tested rate with 80% or greater inhibition; about 14 days after treatment
From the text: as §2, §3, §4, §5, §6

[20] = test system: CONAR; test: Post-emergence herbicidal activity on CONAR (field bindweed); type: in vivo, Convolvulus arvensis; conditions: post-emergence spray; lowest tested rate with 80% or greater inhibition; about 14 days after treatment
From the text: as §2, §3, §4, §5, §6

[21] = test system: POROL; test: Post-emergence herbicidal activity on POROL (common purslane; table head prints PORAL); type: in vivo, Portulaca oleracea; conditions: post-emergence spray; lowest tested rate with 80% or greater inhibition; about 14 days after treatment
From the text: as §2, §3, §4, §5, §6

[22] = test system: CIRAR; test: Post-emergence herbicidal activity on CIRAR (canada thistle, seedling); type: in vivo, Cirsium arvense; conditions: post-emergence spray; lowest tested rate with 80% or greater inhibition; about 14 days after treatment
From the text: as §2, §3, §4, §5, §6

[23] = test system: ECHCG; test: Post-emergence herbicidal activity on ECHCG (barnyardgrass); type: in vivo, Echinochloa crus-galli; conditions: post-emergence spray; lowest tested rate with 80% or greater inhibition; about 14 days after treatment
From the text: as §2, §3, §4, §5, §6

[24] = test system: PANMI; test: Post-emergence herbicidal activity on PANMI (wild proso millet); type: in vivo, Panicum miliaceum; conditions: post-emergence spray; lowest tested rate with 80% or greater inhibition; about 14 days after treatment
[25] = test system: SORHA; test: Post-emergence herbicidal activity on SORHA (johnsongrass, seedling); type: in vivo, Sorghum halepense; conditions: post-emergence spray; lowest tested rate with 80% or greater inhibition; about 14 days after treatment
From the text: as §2, §3, §4, §5, §6

[26] = test system: SETFA; test: Post-emergence herbicidal activity on SETFA (giant foxtail); type: in vivo, Setaria faberi; conditions: post-emergence spray; lowest tested rate with 80% or greater inhibition; about 14 days after treatment
From the text: as §2, §3, §4, §5, §6

[27] = test system: PANDI; test: Post-emergence herbicidal activity on PANDI (fall panicum); type: in vivo, Panicum dichotomiflorum; conditions: post-emergence spray; lowest tested rate with 80% or greater inhibition; about 14 days after treatment
From the text: as §2, §3, §4, §5, §6

[28] = test system: SORVU; test: Post-emergence herbicidal activity on SORVU (shattercane); type: in vivo, Sorghum vulgare; conditions: post-emergence spray; lowest tested rate with 80% or greater inhibition; about 14 days after treatment
From the text: as §2, §3, §4, §5, §6

[29] = test system: BRAPP; test: Post-emergence herbicidal activity on BRAPP (broadleaf signalgrass); type: in vivo, Brachiaria platyphylla; conditions: post-emergence spray; lowest tested rate with 80% or greater inhibition; about 14 days after treatment
From the text: as §2, §3, §4, §5, §6

[30] = test system: DIGSA; test: Post-emergence herbicidal activity on DIGSA (large crabgrass); type: in vivo, Digitaria sanguinalis; conditions: post-emergence spray; lowest tested rate with 80% or greater inhibition; about 14 days after treatment

SMILES	Post-emergence activity (GR80) ABUTH [15]	Post-emergence activity (GR80) SOLNI [16]	Post-emergence activity (GR80) AMARE [17]	Post-emergence activity (GR80) DATST [18]	Post-emergence activity (GR80) CHEAL [19]	Post-emergence activity (GR80) CONAR [20]	Post-emergence activity (GR80) PORAL [21]	Post-emergence activity (GR80) CIRAR [22]	Post-emergence activity (GR80) ECHCG [23]	Post-emergence activity (GR80) PANMI [24]	Post-emergence activity (GR80) SORHA [25]	Post-emergence activity (GR80) PANDI [27]	Post-emergence activity (GR80) SORVU [28]	Post-emergence activity (GR80) BRAPP [29]	Post-emergence activity (GR80) DIGSA [30]	other results
CC(CNC(=O)c1cccc(C(F)(F)F)c1)NC(=O)c1cccc(I)c1 (stereo not drawn) [Example 59]	phyto	phyto	* (Where herbicidal activity was evident but 80% inhibition was not achieved at the highest rate tested (typically 1000 g/ha), an asterisk (*) is shown)	phyto	[empty]	phyto	[empty]	phyto	[empty]	[empty]	[empty]	phyto	[empty]	phyto	phyto	Pre-emergence activity (GR80) on ABUTH [1]: phyto; Pre-emergence activity (GR80) on SOLNI [2]: phyto; Pre-emergence activity (GR80) on AMARE [3]: 250 g/ha; Pre-emergence activity (GR80) on DATST [4]: 1000 g/ha; Pre-emergence activity (GR80) on CHEAL [5]: 500 g/ha; Pre-emergence activity (GR80) on CONAR [6]: phyto; Pre-emergence activity (GR80) on PORAL [7]: 125 g/ha; Pre-emergence activity (GR80) on CIRAR [8]: 1000 g/ha; Pre-emergence activity (GR80) on ECHCG [9]: phyto; Pre-emergence activity (GR80) on SORHA [10]: phyto; Pre-emergence activity (GR80) on SETFA [11]: 1000 g/ha; Pre-emergence activity (GR80) on PANDI [12]: phyto; Pre-emergence activity (GR80) on BRAPP [13]: phyto; Pre-emergence activity (GR80) on DIGSA [14]: phyto; Post-emergence activity (GR80) SETFA [26]: [empty]
O=C(NCC(CCl)NC(=O)c1cccc(C(F)(F)F)c1)c1cccc(C(F)(F)F)c1 (stereo not drawn) [Example 12, N,N′-(3-chloro-1,2-propanediylbis)-3-(trifluoromethyl)benzamide]	[empty]	[empty]	[empty]	[empty]	[empty]	[empty]	1000 g/ha	1000 g/ha	[empty]	[empty]	[empty]	[empty]	[empty]	[empty]	[empty]	
